Laboratory results from ChEMBL document CHEMBL5724914, “Linking interpersonal differences in gut microbiota composition and drug biotransformation activity” (2024).

test: (§1) The drug is tested on Z-012 corresponding to metagenome with ENA study accession number: PRJEB37062 and ENA sample accession number: ERS12561812 for biotransformation under anaerobic condition. The drug concentrations were measured over 9 timepoints collected between 0 and 24 hours of incubation by liquid-chromatography-coupled mass spectrometry (LC–MS); conditions: 2 µM
Also: call rule not given here.

Bacterial Biotransformation	Structure (SMILES)
Compound metabolized	CN1CC(=O)N2[C@H](c3ccc4c(c3)OCO4)c3[nH]c4ccccc4c3C[C@@H]2C1=O
Compound NOT metabolized	COc1cc2nc(N(C)CCCNC(=O)C3CCCO3)nc(N)c2cc1OC (stereo not given) [ALFUZOSIN]
Compound NOT metabolized	CC(C)NCC(O)COc1ccc(CCOCC2CC2)cc1 (stereo not given) [BETAXOLOL]
Compound NOT metabolized	CS(=O)(=O)O.OC(CCN1CCCCC1)(c1ccccc1)c1ccccc1 [PRIDINOL METHANESULFONATE]

test: (§2) The drug is tested on Z-007 corresponding to rat gut metagenome with ENA study accession number: PRJEB37062 and ENA sample accession number: ERS12561807 for biotransformation under anaerobic condition. The drug concentrations were measured over 9 timepoints collected between 0 and 24 hours of incubation by liquid-chromatography-coupled mass spectrometry (LC–MS); conditions: 2 µM

Bacterial Biotransformation	Structure (SMILES)
Compound NOT metabolized	CN1CC(=O)N2[C@H](c3ccc4c(c3)OCO4)c3[nH]c4ccccc4c3C[C@@H]2C1=O
Compound NOT metabolized	COc1cc2nc(N(C)CCCNC(=O)C3CCCO3)nc(N)c2cc1OC (stereo not given) [ALFUZOSIN]
Compound NOT metabolized	CC(C)NCC(O)COc1ccc(CCOCC2CC2)cc1 (stereo not given) [BETAXOLOL]
Compound NOT metabolized	CS(=O)(=O)O.OC(CCN1CCCCC1)(c1ccccc1)c1ccccc1 [PRIDINOL METHANESULFONATE]

test: as §1, with “Z-005” for “Z-012”, “ERS12561805” for “ERS12561812”; conditions: 2 µM

Bacterial Biotransformation	Structure (SMILES)
Compound NOT metabolized	CN1CC(=O)N2[C@H](c3ccc4c(c3)OCO4)c3[nH]c4ccccc4c3C[C@@H]2C1=O
Compound NOT metabolized	COc1cc2nc(N(C)CCCNC(=O)C3CCCO3)nc(N)c2cc1OC (stereo not given) [ALFUZOSIN]
Compound NOT metabolized	CC(C)NCC(O)COc1ccc(CCOCC2CC2)cc1 (stereo not given) [BETAXOLOL]
Compound NOT metabolized	CS(=O)(=O)O.OC(CCN1CCCCC1)(c1ccccc1)c1ccccc1 [PRIDINOL METHANESULFONATE]

conditions: human gut metagenome, 24 h, 2 µM

Bacterial Biotransformation	Structure (SMILES)
Compound metabolized	CN1CC(=O)N2[C@H](c3ccc4c(c3)OCO4)c3[nH]c4ccccc4c3C[C@@H]2C1=O
Compound metabolized	COc1cc2nc(N(C)CCCNC(=O)C3CCCO3)nc(N)c2cc1OC (stereo not given) [ALFUZOSIN]
Compound metabolized	CC(C)NCC(O)COc1ccc(CCOCC2CC2)cc1 (stereo not given) [BETAXOLOL]
Compound metabolized	CS(=O)(=O)O.OC(CCN1CCCCC1)(c1ccccc1)c1ccccc1 [PRIDINOL METHANESULFONATE]

test: as §2, with “Z-029” for “Z-007”, “ERS12561828” for “ERS12561807”; conditions: 2 µM

Bacterial Biotransformation	Structure (SMILES)
Compound NOT metabolized	CN1CC(=O)N2[C@H](c3ccc4c(c3)OCO4)c3[nH]c4ccccc4c3C[C@@H]2C1=O
Compound NOT metabolized	COc1cc2nc(N(C)CCCNC(=O)C3CCCO3)nc(N)c2cc1OC (stereo not given) [ALFUZOSIN]
Compound NOT metabolized	CC(C)NCC(O)COc1ccc(CCOCC2CC2)cc1 (stereo not given) [BETAXOLOL]
Compound NOT metabolized	CS(=O)(=O)O.OC(CCN1CCCCC1)(c1ccccc1)c1ccccc1 [PRIDINOL METHANESULFONATE]

conditions: human gut metagenome, 24 h, 2 µM; remark: another data set of the same source

Bacterial Biotransformation	Structure (SMILES)
Compound NOT metabolized	CN1CC(=O)N2[C@H](c3ccc4c(c3)OCO4)c3[nH]c4ccccc4c3C[C@@H]2C1=O
Compound NOT metabolized	COc1cc2nc(N(C)CCCNC(=O)C3CCCO3)nc(N)c2cc1OC (stereo not given) [ALFUZOSIN]
Compound NOT metabolized	CC(C)NCC(O)COc1ccc(CCOCC2CC2)cc1 (stereo not given) [BETAXOLOL]
Compound NOT metabolized	CS(=O)(=O)O.OC(CCN1CCCCC1)(c1ccccc1)c1ccccc1 [PRIDINOL METHANESULFONATE]

test: as §2, with “on WLS-082” for “on Z-007”, “to human” for “to rat”, “number: ERS12561751” for “number: ERS12561807”; conditions: 2 µM

Bacterial Biotransformation	Structure (SMILES)
Compound metabolized	CN1CC(=O)N2[C@H](c3ccc4c(c3)OCO4)c3[nH]c4ccccc4c3C[C@@H]2C1=O
Compound metabolized	COc1cc2nc(N(C)CCCNC(=O)C3CCCO3)nc(N)c2cc1OC (stereo not given) [ALFUZOSIN]
Compound NOT metabolized	CC(C)NCC(O)COc1ccc(CCOCC2CC2)cc1 (stereo not given) [BETAXOLOL]
Compound NOT metabolized	CS(=O)(=O)O.OC(CCN1CCCCC1)(c1ccccc1)c1ccccc1 [PRIDINOL METHANESULFONATE]

test: as §2, with “on Z-003” for “on Z-007”, “to pig” for “to rat”, “number: ERS12561803” for “number: ERS12561807”; conditions: 2 µM

Bacterial Biotransformation	Structure (SMILES)
Compound metabolized	CN1CC(=O)N2[C@H](c3ccc4c(c3)OCO4)c3[nH]c4ccccc4c3C[C@@H]2C1=O
Compound metabolized	COc1cc2nc(N(C)CCCNC(=O)C3CCCO3)nc(N)c2cc1OC (stereo not given) [ALFUZOSIN]
Compound NOT metabolized	CC(C)NCC(O)COc1ccc(CCOCC2CC2)cc1 (stereo not given) [BETAXOLOL]
Compound metabolized	CS(=O)(=O)O.OC(CCN1CCCCC1)(c1ccccc1)c1ccccc1 [PRIDINOL METHANESULFONATE]

conditions: human gut metagenome, 24 h, 2 µM; remark: another data set of the same source

Bacterial Biotransformation	Structure (SMILES)
Compound metabolized	CN1CC(=O)N2[C@H](c3ccc4c(c3)OCO4)c3[nH]c4ccccc4c3C[C@@H]2C1=O
Compound metabolized	COc1cc2nc(N(C)CCCNC(=O)C3CCCO3)nc(N)c2cc1OC (stereo not given) [ALFUZOSIN]
Compound NOT metabolized	CC(C)NCC(O)COc1ccc(CCOCC2CC2)cc1 (stereo not given) [BETAXOLOL]
Compound NOT metabolized	CS(=O)(=O)O.OC(CCN1CCCCC1)(c1ccccc1)c1ccccc1 [PRIDINOL METHANESULFONATE]

conditions: human gut metagenome, 24 h, 2 µM; remark: another data set of the same source

Bacterial Biotransformation	Structure (SMILES)
Compound metabolized	CN1CC(=O)N2[C@H](c3ccc4c(c3)OCO4)c3[nH]c4ccccc4c3C[C@@H]2C1=O
Compound metabolized	COc1cc2nc(N(C)CCCNC(=O)C3CCCO3)nc(N)c2cc1OC (stereo not given) [ALFUZOSIN]
Compound metabolized	CC(C)NCC(O)COc1ccc(CCOCC2CC2)cc1 (stereo not given) [BETAXOLOL]
Compound metabolized	CS(=O)(=O)O.OC(CCN1CCCCC1)(c1ccccc1)c1ccccc1 [PRIDINOL METHANESULFONATE]

conditions: human gut metagenome, 24 h, 2 µM; remark: another data set of the same source

Bacterial Biotransformation	Structure (SMILES)
Compound metabolized	CN1CC(=O)N2[C@H](c3ccc4c(c3)OCO4)c3[nH]c4ccccc4c3C[C@@H]2C1=O
Compound metabolized	COc1cc2nc(N(C)CCCNC(=O)C3CCCO3)nc(N)c2cc1OC (stereo not given) [ALFUZOSIN]
Compound NOT metabolized	CC(C)NCC(O)COc1ccc(CCOCC2CC2)cc1 (stereo not given) [BETAXOLOL]
Compound metabolized	CS(=O)(=O)O.OC(CCN1CCCCC1)(c1ccccc1)c1ccccc1 [PRIDINOL METHANESULFONATE]

test: as §2, with “on WLS-350” for “on Z-007”, “to human” for “to rat”, “number: ERS12561789” for “number: ERS12561807”; conditions: 2 µM

Bacterial Biotransformation	Structure (SMILES)
Compound metabolized	CN1CC(=O)N2[C@H](c3ccc4c(c3)OCO4)c3[nH]c4ccccc4c3C[C@@H]2C1=O
Compound metabolized	COc1cc2nc(N(C)CCCNC(=O)C3CCCO3)nc(N)c2cc1OC (stereo not given) [ALFUZOSIN]
Compound NOT metabolized	CC(C)NCC(O)COc1ccc(CCOCC2CC2)cc1 (stereo not given) [BETAXOLOL]
Compound NOT metabolized	CS(=O)(=O)O.OC(CCN1CCCCC1)(c1ccccc1)c1ccccc1 [PRIDINOL METHANESULFONATE]

conditions: human gut metagenome, 24 h, 2 µM; remark: another data set of the same source

Bacterial Biotransformation	Structure (SMILES)
Compound metabolized	CN1CC(=O)N2[C@H](c3ccc4c(c3)OCO4)c3[nH]c4ccccc4c3C[C@@H]2C1=O
Compound NOT metabolized	COc1cc2nc(N(C)CCCNC(=O)C3CCCO3)nc(N)c2cc1OC (stereo not given) [ALFUZOSIN]
Compound NOT metabolized	CC(C)NCC(O)COc1ccc(CCOCC2CC2)cc1 (stereo not given) [BETAXOLOL]
Compound NOT metabolized	CS(=O)(=O)O.OC(CCN1CCCCC1)(c1ccccc1)c1ccccc1 [PRIDINOL METHANESULFONATE]

conditions: human gut metagenome, 24 h, 2 µM; remark: another data set of the same source

Bacterial Biotransformation	Structure (SMILES)
Compound metabolized	CN1CC(=O)N2[C@H](c3ccc4c(c3)OCO4)c3[nH]c4ccccc4c3C[C@@H]2C1=O
Compound metabolized	COc1cc2nc(N(C)CCCNC(=O)C3CCCO3)nc(N)c2cc1OC (stereo not given) [ALFUZOSIN]
Compound NOT metabolized	CC(C)NCC(O)COc1ccc(CCOCC2CC2)cc1 (stereo not given) [BETAXOLOL]
Compound metabolized	CS(=O)(=O)O.OC(CCN1CCCCC1)(c1ccccc1)c1ccccc1 [PRIDINOL METHANESULFONATE]

conditions: human gut metagenome, 24 h, 2 µM; remark: another data set of the same source

Bacterial Biotransformation	Structure (SMILES)
Compound metabolized	CN1CC(=O)N2[C@H](c3ccc4c(c3)OCO4)c3[nH]c4ccccc4c3C[C@@H]2C1=O
Compound metabolized	COc1cc2nc(N(C)CCCNC(=O)C3CCCO3)nc(N)c2cc1OC (stereo not given) [ALFUZOSIN]
Compound NOT metabolized	CC(C)NCC(O)COc1ccc(CCOCC2CC2)cc1 (stereo not given) [BETAXOLOL]
Compound NOT metabolized	CS(=O)(=O)O.OC(CCN1CCCCC1)(c1ccccc1)c1ccccc1 [PRIDINOL METHANESULFONATE]

conditions: human gut metagenome, 24 h, 2 µM; remark: another data set of the same source

Bacterial Biotransformation	Structure (SMILES)
Compound metabolized	CN1CC(=O)N2[C@H](c3ccc4c(c3)OCO4)c3[nH]c4ccccc4c3C[C@@H]2C1=O
Compound metabolized	COc1cc2nc(N(C)CCCNC(=O)C3CCCO3)nc(N)c2cc1OC (stereo not given) [ALFUZOSIN]
Compound NOT metabolized	CC(C)NCC(O)COc1ccc(CCOCC2CC2)cc1 (stereo not given) [BETAXOLOL]
Compound NOT metabolized	CS(=O)(=O)O.OC(CCN1CCCCC1)(c1ccccc1)c1ccccc1 [PRIDINOL METHANESULFONATE]

test: as §2, with “on WLS-240” for “on Z-007”, “to human” for “to rat”, “number: ERS12561773” for “number: ERS12561807”; conditions: 2 µM

Bacterial Biotransformation	Structure (SMILES)
Compound metabolized	CN1CC(=O)N2[C@H](c3ccc4c(c3)OCO4)c3[nH]c4ccccc4c3C[C@@H]2C1=O
Compound metabolized	COc1cc2nc(N(C)CCCNC(=O)C3CCCO3)nc(N)c2cc1OC (stereo not given) [ALFUZOSIN]
Compound metabolized	CC(C)NCC(O)COc1ccc(CCOCC2CC2)cc1 (stereo not given) [BETAXOLOL]
Compound metabolized	CS(=O)(=O)O.OC(CCN1CCCCC1)(c1ccccc1)c1ccccc1 [PRIDINOL METHANESULFONATE]

test: as §2, with “on Z-018” for “on Z-007”, “to pig” for “to rat”, “number: ERS12561817” for “number: ERS12561807”; conditions: 2 µM

Bacterial Biotransformation	Structure (SMILES)
Compound metabolized	CN1CC(=O)N2[C@H](c3ccc4c(c3)OCO4)c3[nH]c4ccccc4c3C[C@@H]2C1=O
Compound metabolized	COc1cc2nc(N(C)CCCNC(=O)C3CCCO3)nc(N)c2cc1OC (stereo not given) [ALFUZOSIN]
Compound NOT metabolized	CC(C)NCC(O)COc1ccc(CCOCC2CC2)cc1 (stereo not given) [BETAXOLOL]
Compound NOT metabolized	CS(=O)(=O)O.OC(CCN1CCCCC1)(c1ccccc1)c1ccccc1 [PRIDINOL METHANESULFONATE]

conditions: human gut metagenome, 24 h, 2 µM; remark: another data set of the same source

Bacterial Biotransformation	Structure (SMILES)
Compound metabolized	CN1CC(=O)N2[C@H](c3ccc4c(c3)OCO4)c3[nH]c4ccccc4c3C[C@@H]2C1=O
Compound metabolized	COc1cc2nc(N(C)CCCNC(=O)C3CCCO3)nc(N)c2cc1OC (stereo not given) [ALFUZOSIN]
Compound NOT metabolized	CC(C)NCC(O)COc1ccc(CCOCC2CC2)cc1 (stereo not given) [BETAXOLOL]
Compound NOT metabolized	CS(=O)(=O)O.OC(CCN1CCCCC1)(c1ccccc1)c1ccccc1 [PRIDINOL METHANESULFONATE]

conditions: human gut metagenome, 24 h, 2 µM; remark: another data set of the same source

Bacterial Biotransformation	Structure (SMILES)
Compound metabolized	CN1CC(=O)N2[C@H](c3ccc4c(c3)OCO4)c3[nH]c4ccccc4c3C[C@@H]2C1=O
Compound metabolized	COc1cc2nc(N(C)CCCNC(=O)C3CCCO3)nc(N)c2cc1OC (stereo not given) [ALFUZOSIN]
Compound metabolized	CC(C)NCC(O)COc1ccc(CCOCC2CC2)cc1 (stereo not given) [BETAXOLOL]
Compound metabolized	CS(=O)(=O)O.OC(CCN1CCCCC1)(c1ccccc1)c1ccccc1 [PRIDINOL METHANESULFONATE]
